Test results taken from patent US10889609B2, “Mannitol-based amphipathic compound and use thereof” (Industry-University Cooperation Foundation Hanyang …, priority 2015, dated 2021).
Values joined by “and” are separate entries in the source; they are usually repeats but may differ in a detail not shown here. Equal entries are not always repeated.

What was measured:
[1] = Critical micellar concentration (CMC) by hydrophobic fluorescence stain diphenylhexatriene (DPH); assay type: physicochemical; settings: aqueous solution
Text: A method of measuring the CMC is not particularly limited, but the methods widely known in the related art may be used. For example, the CMC may be measured by a fluorescence detection method using diphenylhexatriene (DPH).
(§1) To determine characteristics of the MNAs of Preparative Example 1 to 10 synthesized according to the synthesis method of Example 1, the molecular weights (M.W.) and critical micellar concentrations (CMCs) of the MNAs and the hydrodynamic radii (Rh) of the formed micelles were measured.
(§2) Specifically, the critical micellar concentration (CMC) was measured using a hydrophobic fluorescence stain (diphenylhexatriene (DPH)), and the hydrodynamic radii (Rh) of the micelles formed by each of the preparations were measured by a dynamic light scattering (DLS) experiment. The measured results were compared to those of DDM that is a conventional amphipathic molecule (a detergent), and are listed in Table 1.

[2] = Hydrodynamic radius and size distribution of micelles by dynamic light scattering (DLS); assay type: physicochemical
Text: A method of measuring the radius of the micelle is not particularly limited, but the methods widely known in the related art may be used. For example, the radius of the micelle may be measured using a dynamic light scattering (DLS) experiment.
as §1, §2
Meanwhile, the size distributions of the micelles formed by the MNAs were measured using DLS, and the measurement results are shown in FIG. 17. The MNAs were used at a content of 1.0% by weight.

boron transporter (Bor1) = molecular target: T1, boron transporter (Bor1) (Arabidopsis thaliana, UniProt Q8VYR7); assay: Structural stability and extraction of Bor1 by heat fluorescence size exclusion chromatography (hFSEC)
T1 construct: made in house; host or cells: Saccharomyces cerevisiae FGY217
T1 sequence (Q8VYR7 whole entry): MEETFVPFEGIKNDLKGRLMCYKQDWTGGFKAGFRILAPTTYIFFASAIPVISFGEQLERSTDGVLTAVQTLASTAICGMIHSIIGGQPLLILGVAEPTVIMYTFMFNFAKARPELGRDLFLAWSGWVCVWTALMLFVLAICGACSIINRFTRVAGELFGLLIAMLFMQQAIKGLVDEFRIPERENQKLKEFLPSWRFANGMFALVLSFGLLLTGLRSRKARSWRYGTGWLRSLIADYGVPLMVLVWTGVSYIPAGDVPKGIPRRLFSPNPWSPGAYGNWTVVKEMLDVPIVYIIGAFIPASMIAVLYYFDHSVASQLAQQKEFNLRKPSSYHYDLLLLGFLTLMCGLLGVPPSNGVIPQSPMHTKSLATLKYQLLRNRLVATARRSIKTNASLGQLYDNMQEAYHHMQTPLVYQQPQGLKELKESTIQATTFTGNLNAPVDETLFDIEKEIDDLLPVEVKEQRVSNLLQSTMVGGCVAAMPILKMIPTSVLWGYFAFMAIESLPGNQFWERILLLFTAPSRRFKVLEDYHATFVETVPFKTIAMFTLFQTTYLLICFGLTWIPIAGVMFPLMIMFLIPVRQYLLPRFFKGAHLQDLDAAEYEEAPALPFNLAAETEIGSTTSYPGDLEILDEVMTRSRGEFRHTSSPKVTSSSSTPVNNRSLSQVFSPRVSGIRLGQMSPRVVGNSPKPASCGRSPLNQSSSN
Protocol: An experiment for measuring the structural stability of a boron transporter (Bor1) by the MNAs was performed. The structural stability of Bor1 was measured using heat fluorescence size exclusion chromatography (hFSEC), and the concentrations of the MNAs and DDM were CMC plus 0.04% by weight. Specifically, Bor1 of Arabidopsis thaliana was expressed in Saccharomyces cerevisiae FGY217 cells as a fusion protein having a C-terminal GFP-His tag. The cells were grown in a -URA medium supplemented with 0.1% glucose. Expression of proteins was induced by adding 2% galactose, and the cells were then cultured at 20° C. for 18 hours. Here, the cell culture was carried out according to the method described in the article by D. Drew et al. (Nat. Protoc. 2008, 3, 784-798.). The cells were collected to prepare membranes, and the cell collection was carried out according to the method described in the article by J. Leung et al. (Protein Expr. Purif. 2010, 72, 139-146.). The membranes including the Bor1-GFP fusion protein were diluted with phosphate-buffered saline (PBS, pH 7.4) until the final concentration of the total proteins reached 2.8 mg/mL. In this case, 1% by weight of DDM or 1% by weight of MNA (MNA-1, MNA-2, MNA-3, MNA-4, MNA-5, MNA-6, or MNA-7) was added to the PBS. Samples were incubated for an hour while shaking at 4° C., and insoluble materials were then removed by centrifugation at 14,000 g and 4° C. for an hour. The supernatant including the dissolved protein samples was heated at 40° C. for 10 minutes, and the strongly aggregated proteins were removed by centrifugation at 14,000 g and 4° C. for 10 minutes. 200 μL of the supernatant of the samples was injected into a Superose 6 10/300 column equilibrated with 20 mM Tris (pH 7.5), 150 mM NaCl, and 0.03% DDM. Each of elution fractions was collected in 200 μL fractions at a retention volume of 6.4 mL (e.g., 6.4 mL after elusion) in a clear bottom 96-well plate. The GFP fluorescence of each of the fractions was measured at an excitation wavelength of 470 nm and an emission wavelength of 512 nm.

[3] = molecular target: T2, human β2 adrenergic receptor (β2AR) (Homo sapiens, UniProt P07550); assay: Bimane fluorescence spectra of mBBr-β2AR with ISO or ISO plus G-protein; assay type: biochemical; settings: combination of ISO and G-protein, FIG. 20
T2 construct: made in house
T2 sequence (P07550 whole entry): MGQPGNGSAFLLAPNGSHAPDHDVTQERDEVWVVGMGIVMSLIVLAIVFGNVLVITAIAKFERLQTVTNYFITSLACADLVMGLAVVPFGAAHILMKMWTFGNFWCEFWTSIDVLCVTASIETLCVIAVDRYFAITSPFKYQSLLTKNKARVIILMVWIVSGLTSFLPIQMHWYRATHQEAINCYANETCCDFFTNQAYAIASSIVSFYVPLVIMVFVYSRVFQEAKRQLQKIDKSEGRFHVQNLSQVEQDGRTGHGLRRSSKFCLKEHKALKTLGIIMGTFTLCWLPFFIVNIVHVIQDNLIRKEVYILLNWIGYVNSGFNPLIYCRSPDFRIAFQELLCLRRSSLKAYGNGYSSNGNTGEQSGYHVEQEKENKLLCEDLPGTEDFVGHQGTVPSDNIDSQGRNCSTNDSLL
Protocol: Experiments for measuring the structural stabilities of a human β2 adrenergic receptor (β2AR), a G-protein-coupled receptor (GPCR), in the MNAs were performed.
Experiments for measuring the structural changes and structural stabilities of mBBr-β2AR by the MNAs (MNA-5, MNA-6, MNA-7) and DDM according to the presence or absence of a full agonist (isopreoterenol (ISO)) or a combination of ISO and G-protein were performed.
Specifically, β2AR dissolved in 0.1% DDM was purified according to the method disclosed in the article by D. M. Rosenbaum et al. (Science 2007, 318, 1266-1273) and then concentrated to a concentration of approximately 1 mg/mL. […] The mBBr-labeled β2AR was cultured for 30 minutes, and the mBBr spectra thereof were measured and compared to the spectra of the mBBr-labeled receptor dissolved in 0.1% DDM. The fluorescence of the mBBr-labeled β2AR was measured at 370 nm and thus determined by emission from 430 to 510 nm at 1-nm increments with 1 nm s^−1 integration using a Spex FluoroMax-3 spectrofluorometer (Jobin Yvon Inc.) which was run in a photon counting mode through a 4-nm emission bandwidth pass. mBBr dissolved in DDM was used as the positive control. […]

[4] = molecular target: T2, human β2 adrenergic receptor (β2AR); assay: mBBr-β2AR bimane spectra at detergent concentration below CMC; assay type: biochemical; settings: detergent diluted to a fiftieth of its CMC, compared to DDM, FIG. 21
Protocol: Experiments for comparing the structural changes of the β2AR protein by the MNAs and DDM at a concentration below CMCs of the amphipathic molecules were performed.
Specifically, 0.5 μL of a non-ligand mBBr-labeled receptor dissolved at 50 μNI in a 20×CMC concentration of MNA-5, MNA-6, or MNA-7 was diluted with 500 μL of an NH buffer (20 mM HEPES pH 7.5, and 100 mM NaCl). The proteins were cultured for 30 minutes, and the bimane spectra thereof were measured. The receptor dissolved in 0.1% DDM was diluted with the NH buffer, and used as the control. Data was presented as an average of three separate experiments performed in triplicate.

Compound: CCCCCCCCCCCCO[C@H]([C@@H](OCCCCCCCCCCCC)[C@H](CO[C@@H]1OC(CO)[C@@H](O)C(O)C1O)O[C@@H]1OC(CO)[C@@H](O)C(O)C1O)[C@H](CO[C@@H]1OC(CO)[C@@H](O)C(O)C1O)O[C@@H]1OC(CO)[C@@H](O)C(O)C1O (stereo partly drawn) [MNA-5]
- CMC [1]: ~0.004 mM
- Rh (nm), hydrodynamic radius of micelles [2]: 3.0 nm and 3.0 ± 0.01 nm
- Bor1 extraction efficiency (boron transporter (Bor1); 1% by weight detergent, membranes with Bor1-GFP): 60%
- level of Bor1 protein aggregation after heat treatment (boron transporter (Bor1); hFSEC, 40° C. for 10 minutes, FIG. 18): lower level of Bor1 aggregation than DDM
- bimane fluorescence spectra of mBBr-β2AR [3]: slightly higher fluorescence intensity than DDM
- stability of β2AR [4]: secured for a prolonged period of time
